Results taken from patent US7371734B2, “Oligonucleotide compositions and their use for the modulation of immune responses” (Bioniche Life Sciences Inc., priority 2002, dated 2008).
Marks after values point to notes of the source that are not given here.

Tests used:
Type in all cases: cell-based
Human dendritic cells [1] = test: Increase in cell size and granularity of DC (flow cytometry); conditions: 100 μg polynucleotide, 48 hours
Protocol: (§1) Human dendritic cells were obtained from Clonetics (San Diego, Calif., USA) and were cultured in the medium recommended by Clonetics. DC were obtained from three different individuals (see Table 1). Major histocompatability typing was performed on each of these individuals and several of the HLA (human leukocyte antigens) types are shown.
DC were seeded in 1.0 ml at 1.0×10^5 cells/ml in 6-well flat-bottomed tissue culture plates for 48 hours with 100 μg of 6 base N1A, N1B, N2A, N2B, N3A, N3B, N4A, N4B, N5A, N5B, N6A, N6B, N7A or N7B polynucleotides. Cell size (FCS: forward side scatter) and granularity (S SC: side light scatter) were determined by flow cytometry using a FACSCalibur and analyzed using the CELLQuest Pro software (both from Becton-Dickinson, San Diego, Calif., USA). Percentage of DC showing a FCS>500 units and a SSC>400 units have been determined after treatment with 3-OH, 5-OH polynucleotides for DC isolated from three different individuals.

Human dendritic cells [2] = test: Induction of IL-1beta production by DC (ELISA); conditions: 100 μg, 48 hours
Protocol: as §1
DC were seeded in 1.0 ml at 1.0×10^5 cells/ml in 6-well flat-bottomed tissue culture plates for 48 hours with 100 μg of 6 base N1A, N1B, N2A, N2B, N3A, N3B, N4A, N4B, N5A, N5B, N6A, N6B, N7A or N7B polynucleotides. Production of IL-1beta was determined in 100 μl of culture supernatant using a commercial ELISA (BioSource, Camarillo, Calif., USA) after 48 hours of incubation. Results are expressed as the “fold” (x) increase in IL-1beta production by treated DC compared to control cells.

Human dendritic cells [3] = test: Induction of IL-12 production by DC (ELISA); conditions: 100 μg, 48 hours
Protocol: as §1
DC were seeded in 1.0 ml at 1.0×10^5 cells/ml in 6-well flat-bottomed tissue culture plates for 48 hours with 100 μg of 6 base N1A, N1B, N2A, N2B, N3A, N3B, N4A, N4B, N5A, N5B, N6A, N6B, N7A or N7B polynucleotides. Production of IL-12 was determined in 100 μl of culture supernatant using a commercial ELISA (BioSource) after 48 hours of incubation. Results are expressed as the “fold” (x) increase in IL-12 production by treated DC compared to control cells.

Human dendritic cells [4] = test: Induction of IFN-gamma production by DC (ELISA); conditions: 100 μg, 48 hours
Protocol: as §1
DC were seeded in 1.0 ml at 1.0×10^5 cells/ml in 6-well flat-bottomed tissue culture plates for 48 hours with 100 μg of6 base N1A, N1B, N2A, N2B, N3A, N3B, N4A, N4B, N5A, N5B, N6A, N6B, N7A or N7B polynucleotides. Production of IFN-gamma was determined in 100 μl of culture supernatant using a commercial ELISA (BioSource) after 48 hours of incubation. Results are expressed as the “fold” (x) increase in IFN-gamma production by treated DC compared to control cells.

Human dendritic cells [5] = test: CD40 levels at the DC cell surface (flow cytometry); conditions: 100 μg, 48 hours
Protocol: as §1
DC from individuals B and C were seeded in 1.0 ml at 1.0×10^5 cells/ml in 6-well flat-bottomed tissue culture plates for 48 hours with 100 μg of 6 base N1A, N1B, N2A, N2B, N3A, N3B, N4A, N4B, N5A, N5B, N6A, N6B, N7A or N7B polynucleotides. The level of CD40 at the cell surface was determined after 48 hours of incubation by flow cytometry (FACSCalibur system) using a FITC-conjugated monoclonal antibody directed to CD40 and analyzed by CELLQuest Pro (all from Becton Dickinson). Results are expressed as the percentage of CD40^hi DC following treatment. The term “CD40^hi” refers to a population of cells identified by flow cytometry as having higher than baseline expression of CD40.

Human dendritic cells [6] = test: CD80 levels at the DC cell surface (flow cytometry); conditions: 100 μg, 48 hours
Protocol: as §1
(§2) DC from individuals B and C were seeded in 1.0 ml at 1.0×10^5 cells/ml in 6-well flat-bottomed tissue culture plates for 48 hours with 100 μg of 6 base N1A, N1B, N2A, N2B, N3A, N3B, N4A, N4B, N5A, N5B, N6A, N6B, N7A or N7B polynucleotides. The level of CD80 at the cell surface was determined after 48 hours of incubation by flow cytometry using a FITC-conjugated monoclonal antibody directed to CD80 (Serotec, Oxford, U.K.) and analyzed by CELLQuest. Results are expressed as the percentage of CD80^hi DC following treatment.

Human dendritic cells [7] = test: CD86 levels at the DC cell surface (flow cytometry); conditions: 100 μg, 48 hours
Protocol: as §1
as §2, with “CD86” for “CD80”, “PE-conjugated” for “FITC-conjugated”, “CD86 (Serotec)” for “CD80 (Serotec, Oxford, U.K.)”, “CELLQuest Pro.” for “CELLQuest.”, “CD86^hi” for “CD80^hi”

Human dendritic cells [8] = test: MHC-II levels at the DC cell surface (flow cytometry); conditions: DC from individual B; 100 μg, 48 hours
Protocol: as §1
DC from individual B were seeded in 1.0 ml at 1.0×10^5 cells/ml in 6-well flat-bottomed tissue culture plates for 48 hours with 100 μg of 6 base N1A, N1B, N2A, N2B, N3A, N3B, N5A, N5B, N6A, N6B, N7A or N7B polynucleotides. The level of MHC II at the cell surface was determined after 48 hours of incubation by flow cytometry using a FITC-conjugated monoclonal antibody directed to MHC II (Serotec) and analyzed by CELLQuest Pro. Results are expressed as the percentage of MHC II^hi DC following treatment.

Human dendritic cells [9] = test: Endocytosis of FITC-dextran by DC; conditions: DC from individual B, 100 μg, 24 hours, untreated control = 100
Protocol: as §1
DC from individual B were seeded in 1.0 ml at 1.0×10^5 cells/ml in 6-well flat-bottomed tissue culture plates for 24 hours with 1 mg/ml of FITC-dextran (20 kDa; Sigma-Aldrich) in the absence or presence of 100 μg of 6 base N2A, N2B, N3A, N3B, N5A, N5B, and N6B polynucleotides at 4° C. (control cell surface binding of FITC-dextran) and 37° C. (to assess endocytosis). Cells were washed three times with ice-cold phosphate buffered saline and analyzed by flow cytometry using CELLQuest Pro. Results are expressed as relative endocytic rate (normalized Δ Mean Fluorescence Value (Δ MFV)). Δ MFV=MFV of DC exposed to FITC-dextran at 37° C.−MFV of DC exposed to FITC-dextran at 4° C. Δ MFV=(ΔMFVsequence/ΔMFVcontrol)×100.

Substance | Percentage of DC showing a FCS > 500 units and a SSC > 400 units (Human dendritic cells [1]; DC isolated from individual A) | Percentage of DC showing a FCS > 500 units and a SSC > 400 units (Human dendritic cells [1]; DC isolated from individual B) | Percentage of DC showing a FCS > 500 units and a SSC > 400 units (Human dendritic cells [1]; DC isolated from individual C) | IL-1beta production by DC (fold increase compared to untreated DC) (Human dendritic cells [2]; DC isolated from individual A) | IL-1beta production by DC (fold increase compared to untreated DC) (Human dendritic cells [2]; DC isolated from individual B) | IL-1beta production by DC (fold increase compared to untreated DC) (Human dendritic cells [2]; DC isolated from individual C) | IL-12 production by DC (fold increase compared to untreated DC) (Human dendritic cells [3]; DC isolated from individual A) | IL-12 production by DC (fold increase compared to untreated DC) (Human dendritic cells [3]; DC isolated from individual B) | IL-12 production by DC (fold increase compared to untreated DC) (Human dendritic cells [3]; DC isolated from individual C) | IFN-gamma production by DC (fold increase compared to untreated DC) (Human dendritic cells [4]; DC isolated from individual A) | IFN-gamma production by DC (fold increase compared to untreated DC) (Human dendritic cells [4]; DC isolated from individual B) | IFN-gamma production by DC (fold increase compared to untreated DC) (Human dendritic cells [4]; DC isolated from individual C) | The percentage of CD40^hi DC following treatment (Human dendritic cells [5]; DC from individual B) | The percentage of CD40^hi DC following treatment (Human dendritic cells [5]; DC from individual C) | The percentage of CD80^hi DC following treatment (Human dendritic cells [6]; DC from individual B) | The percentage of CD80^hi DC following treatment (Human dendritic cells [6]; DC from individual C) | The percentage of CD86^hi DC following treatment (Human dendritic cells [7]; DC from individual B) | The percentage of CD86^hi DC following treatment (Human dendritic cells [7]; DC from individual C) | The percentage of MHC-II^hi DC following treatment (Human dendritic cells [8]) | Relative endocytic rate (normalized Δ MFV) (Human dendritic cells [9])
5′ GTGTGT3′ [N1B] | 5% | 17% | 25% | 1.0 fold | 1.0 fold | 1.0 fold | 1.5 fold | 1.3 fold | 1.1 fold | 0.9 fold | 1.0 fold | 1.0 fold | 31** % | 18% | 11% | 13% | 19% | 27% | 7% | –
5′GGCCGG3′ [N4A] (DNA, all phosphodiester, methylation of C not given here) | 4% | – | 19% | 0.9 fold | – | 1.0 fold | 1.2 fold | – | 1.0 fold | 1.0 fold | – | 1.0 fold | – | 16% | 11% | 21** % | – | 23% | – | –
5′GGCCGG3′ [N4B] (DNA, all phosphorothioate, methylation of C not given here) | 4% | – | 32% | 1.0 fold | – | 1.0 fold | 1.3 fold | – | 2.6 fold | 1.0 fold | – | 1.0 fold | – | 16% | 9% | 13% | – | 32% | – | –
5′GGGCGG3′ [N7B] (DNA, all phosphorothioate, methylation of C not given here) | 16% | – | 31% | 1.1 fold | – | 0.9 fold | 1.8 fold | – | 1.0 fold | 1.1 fold | – | 1.1 fold | – | 18% | 5% | 5% | – | 34% | 31** % | –
5′GGGGGG3′ [N5A] (unmodified DNA) | 10% | 19% | 36% | 1.1 fold | 1.1 fold | 1.0 fold | 0.9 fold | 1.1 fold | 1.0 fold | 1.1 fold | 1.1 fold | 1.0 fold | 40** % | 30** % | 18% | 14% | 20% | 16% | 19% | 209
